Laboratory results: US5556886A, “HIV-inhibiting benzeneacetamide derivatives” (Janssen Pharmaceutica N.V., priority 1990, dated 1996)
Values after ≈ are worked out from the molar mass of the structure shown.

How the values were obtained:
HIV-1 = assay: in-vitro anti-HIV assay: inhibition of HIV-induced cytopathic effect in MT-4 cells (MTT); type: cell-based; conditions: for SI (selectivity index, ratio of CD50 to ED50): CD50/ED50, MT-4 cells; for EC50: Human immunodeficiency virus 1, MT4, HIV-infected MT-4 cells, cytopathic effect, MTT, 540 nm, read-out: ED50 (dose achieving 50% protection)
Protocol: (§1) A rapid, sensitive and automated assay procedure was used for the in-vitro evaluation of anti-HIV agents. An […] T4-cell line, MT-4, which was previously shown (Koyanagi et al., Int. J. Cancer, 36, 445-451, 1985) to be highly susceptible to and permissive for HIV infection, served as the target cell line. Inhibition of the HIV-induced cytopathic effect was used as the end point. The viability of both HIV-and mock-infected cells was assessed spectrophotometrically via the in-situ reduction of 3-(4,5-dimethylthiazol-2-yl)-2,5-diphenyltetrazolium bromide (MTT). The 50% cytotoxic dose (CD50 in μg/ml) was defined as the concentration of compound that reduced the absorbance of the mock-infectedcontrol sample by 50%. The percent protection achieved by the compound in HIV-infected cells was calculated by the following formula: [formula] whereby (ODT)HIV is the optical density measured with a given concentration of the test compound in HIV-infected cells; (ODC)HIV is the optical density measured for the control untreated HIV-infected cells; (ODC)MOCK is the optical density measured for the control untreated mock-infected cells; all optical density values were determined at 540 nm. The dose achieving 50% protection according to the above formula was defined as the 50% effective dose (ED50 in μg/ml). The ratio of CD50 to ED50 was defined as the selectivity index (SI).

in vitro = type: cell-based; conditions: human, mt-4 cells
Protocol: as §1

SMILES | SI (selectivity index, ratio of CD50 to ED50) (HIV-1) | EC50 (HIV-1) [mg/L] | CC50 (in vitro) [mg/L]
CC(=O)c1ccccc1NC(C(N)=O)c1c(Cl)cccc1Cl (single isomer, unassigned) [Compound 23, (-)-α-[(2-acetylphenyl)amino]-2,6-dichlorobenzeneacetamide] | ~ 3000 | 0.0066 (≈ 0.0196 µM) | 20 (≈ 59.3 µM)
Cc1cc(C)c([N+](=O)[O-])c(NC(C(N)=O)c2c(Cl)cccc2Cl)c1 (stereo not drawn) [Compound 27] | ~ 100 | 0.049 (≈ 0.133 µM) | 5 (≈ 13.6 µM)
Cc1ccc([N+](=O)[O-])c(NC(C(N)=O)c2c(Cl)cccc2Cl)c1 (single isomer, unassigned) [Compound 29, (-)-α-[(5-methyl-2-nitrophenyl)amino]-2,6-dichlorobenzeneacetamide] | ~ 1550 | 0.0032 (≈ 0.00903 µM) | 5 (≈ 14.1 µM)
NC(=O)C(Nc1ccccc1[N+](=O)[O-])c1c(Cl)cccc1Cl (single isomer, unassigned; (-)) [Compound 25, (-)-2,6-dichloro-α-[(2-nitrophenyl)amino]benzeneacetamide] | ~ 1600 | 0.018 (≈ 0.0529 µM) | 29 (≈ 85.3 µM)
CC(=O)c1ccccc1NC(C(N)=O)c1c(Cl)cccc1Cl (racemic) [Compound 22, (±)-α[(2-acetylphenyl)amino]-2,6-dichlorobenzeneacetamide] | ~ 2700 | 0.013 (≈ 0.0386 µM) | 35 (≈ 104 µM)
NC(=O)C(Nc1ccccc1[N+](=O)[O-])c1c(Cl)cccc1Cl (stereo not drawn) [Compound 15, 2-(2,6-dichlorophenyl)-2-[(2-nitrophenyl)amino]acetamide] | ~ 1000 | 0.02 (≈ 0.0588 µM) | 20 (≈ 58.8 µM)
CC(=O)c1ccc(Cl)cc1NC(C(N)=O)c1c(Cl)cccc1Cl (stereo not drawn) [Compound 30, α-[(2-acetyl-5-chlorophenyl)amino]-2,6-dichlorobenzeneacetamide] | ~ 18000 | 0.011 (≈ 0.0296 µM) | 200 (≈ 538 µM)
Cc1ccc([N+](=O)[O-])c(NC(C(N)=O)c2c(Cl)cccc2Cl)c1 (stereo not drawn) [Compound 26] | ≥ 4400 | 0.057 (≈ 0.161 µM) | > 250
Cc1cc(NC(C(N)=O)c2c(Cl)ccc(Cl)c2Cl)c([N+](=O)[O-])cc1C (stereo not drawn) [Compound 28] | ~ 140 | 0.07 (≈ 0.174 µM) | 10 (≈ 24.8 µM)
Cc1cc(NC(C(N)=O)c2c(Cl)cccc2Cl)c([N+](=O)[O-])cc1C (stereo not drawn) [Compound 24] | ~ 2100 | 0.077 (≈ 0.209 µM) | 160 (≈ 435 µM)
